Converted amounts (≈) assume the structure as drawn.
Experiments:
[1] = Cytotoxicity against human LNCAP cells after 3 days by sulforhodamine B assay; type: cell-based; settings: read-out: ED50
Plasmodium falciparum [2] = assay: Antimalarial activity after 24 hrs against chloroquine-resistant Plasmodium falciparum W2 infected type A+ human erythrocytes by [3H]hypoxanthine uptake; type: functional; settings: read-out: ED50 (the source's name)
[3] = Selectivity index, ratio of ED50 for human LNCaP cells to ED50 for chloroquine-resistant Plasmodium falciparum W2; type: toxicity, cell-based; settings: read-out: Ratio ED50
[4] = Selectivity index, ratio of ED50 for human LUC1 cells to ED50 for chloroquine-sensitive Plasmodium falciparum D6; type: toxicity, cell-based; settings: read-out: Ratio ED50
[5] = Selectivity index, ratio of ED50 for human LUC1 cells to ED50 for chloroquine-resistant Plasmodium falciparum W2; type: toxicity, cell-based; settings: read-out: Ratio ED50
[6] = Cytotoxicity against mouse P388 cells after 2 days by sulforhodamine B assay; type: cell-based; settings: read-out: ED50
[7] = Selectivity index, ratio of ED50 for human ZR-75-1 cells to ED50 for chloroquine-sensitive Plasmodium falciparum D6; type: toxicity, cell-based; settings: read-out: Ratio ED50
in vitro [8] = settings: mouse, P388 cells
Description: Selectivity index, ratio of ED50 for mice (Mus musculus) P388 cells to ED50 for chloroquine-resistant Plasmodium falciparum W2

in vitro [9] = settings: human, A431 cells
Description: Selectivity index, ratio of ED50 for human A431 cells to ED50 for chloroquine-resistant Plasmodium falciparum W2

[10] = Selectivity index, ratio of ED50 for human KB-V1 cells to ED50 for chloroquine-sensitive Plasmodium falciparum D6; type: toxicity, cell-based; settings: read-out: Ratio ED50
[11] = Selectivity index, ratio of ED50 for human ZR-75-1 cells to ED50 for chloroquine-resistant Plasmodium falciparum W2; type: toxicity, cell-based; settings: read-out: Ratio ED50
[12] = Selectivity index, ratio of ED50 for human MEL2 cells to ED50 for chloroquine-sensitive Plasmodium falciparum D6; type: toxicity, cell-based; settings: read-out: Ratio ED50
[13] = Selectivity index, ratio of ED50 for human COL1 cells to ED50 for chloroquine-sensitive Plasmodium falciparum D6; type: toxicity, cell-based; settings: read-out: Ratio ED50
[14] = Selectivity index, ratio of ED50 for human KB cells to ED50 for chloroquine-sensitive Plasmodium falciparum D6; type: toxicity, cell-based; settings: read-out: Ratio ED50
[15] = Cytotoxicity against human KB cells after 3 days by sulforhodamine B assay; type: cell-based; settings: read-out: ED50
Plasmodium falciparum [16] = assay: Antimalarial activity after 24 hrs against chloroquine-sensitive Plasmodium falciparum D6 infected type A+ human erythrocytes by [3H]hypoxanthine uptake; type: functional; settings: read-out: ED50 (the source's name)
[17] = Cytotoxicity against human LUC1 cells after 3 days by sulforhodamine B assay; type: cell-based; settings: read-out: ED50
[18] = Selectivity index, ratio of ED50 for human HT1080 cells to ED50 for chloroquine-sensitive Plasmodium falciparum D6; type: toxicity, cell-based, HT-1080; settings: read-out: Ratio ED50
[19] = Cytotoxicity against human Col1 cells after 3 days by sulforhodamine B assay; type: cell-based; settings: read-out: ED50
[20] = Selectivity index, ratio of ED50 for human KB cells to ED50 for chloroquine-resistant Plasmodium falciparum W2; type: toxicity, cell-based; settings: read-out: Ratio ED50
[21] = Selectivity index, ratio of ED50 for human LNCaP cells to ED50 for chloroquine-sensitive Plasmodium falciparum D6; type: toxicity, cell-based; settings: read-out: Ratio ED50
[22] = Cytotoxicity against human BCA1 cells after 3 days by sulforhodamine B assay; type: cell-based; settings: read-out: ED50
[23] = Cytotoxicity against human KBV1 cells after 3 days by sulforhodamine B assay; type: cell-based, KB-V1; settings: read-out: ED50
[24] = Selectivity index, ratio of ED50 for human KB-V1 cells to ED50 for chloroquine-resistant Plasmodium falciparum W2; type: toxicity, cell-based; settings: read-out: Ratio ED50
[25] = Cytotoxicity against human A431 cells after 3 days by sulforhodamine B assay; type: cell-based, A-431; settings: read-out: ED50
[26] = Cytotoxicity against human HT1080 cells after 3 days by sulforhodamine B assay; type: cell-based, HT-1080; settings: read-out: ED50
[27] = Selectivity index, ratio of ED50 for human MEL2 cells to ED50 for chloroquine-resistant Plasmodium falciparum W2; type: toxicity, cell-based; settings: read-out: Ratio ED50
in vitro [28] = settings: mouse, P388 cells; remark: listed apart in the source
Description: Selectivity index, ratio of ED50 for mice (Mus musculus) P388 cells to ED50 for chloroquine-sensitive Plasmodium falciparum D6

[29] = Cytotoxicity against human SK-MEL-2 cells after 3 days by sulforhodamine B assay; type: cell-based; settings: read-out: ED50
[30] = Selectivity index, ratio of ED50 for human HT1080 cells to ED50 for chloroquine-resistant Plasmodium falciparum W2; type: toxicity, cell-based, HT-1080; settings: read-out: Ratio ED50
[31] = Selectivity index, ratio of ED50 for human BCA1 cells to ED50 for chloroquine-sensitive Plasmodium falciparum D6; type: toxicity, cell-based; settings: read-out: Ratio ED50
[32] = Selectivity index, ratio of ED50 for human COL1 cells to ED50 for chloroquine-resistant Plasmodium falciparum W2; type: toxicity, cell-based; settings: read-out: Ratio ED50
in vitro [33] = settings: human, A431 cells; remark: listed apart in the source
Description: Selectivity index, ratio of ED50 for human A431 cells to ED50 for chloroquine-sensitive Plasmodium falciparum D6

[34] = Cytotoxicity against human ZR-75-1 cells after 3 days by sulforhodamine B assay; type: cell-based; settings: read-out: ED50
[35] = Selectivity index, ratio of ED50 for human BCA1 cells to ED50 for chloroquine-resistant Plasmodium falciparum W2; type: toxicity, cell-based; settings: read-out: Ratio ED50

Structure (SMILES): COc1ccc2cc1Oc1ccc(cc1)C[C@H]1c3c(cc(OC)c4c3Oc3cc5c(cc3O4)CCN=C5C2)CCN1C
- CC50 at 72 h [1]: 2 mg/L (≈ 3.57 µM)
- EC50 (Plasmodium falciparum [2]): 0.256 mg/L (≈ 0.457 µM)
- selectivity ratio [3]: 8
- selectivity ratio [4]: 6
- selectivity ratio [5]: 7
- CC50 at 48 h [6]: 3.1 mg/L (≈ 5.53 µM)
- selectivity ratio [7]: 2
- selectivity ratio (in vitro [8]): 12
- selectivity ratio (in vitro [9]): 23
- selectivity ratio [10]: 22
- selectivity ratio [11]: 3
- selectivity ratio [12]: 32
- selectivity ratio [13]: 16
- selectivity ratio [14]: 9
- CC50 at 72 h [15]: 2.8 mg/L (≈ 4.99 µM)
- EC50 (Plasmodium falciparum [16]): 0.307 mg/L (≈ 0.547 µM)
- CC50 at 72 h [17]: 1.7 mg/L (≈ 3.03 µM)
- selectivity ratio [18]: 7
- CC50 at 72 h [19]: 5 mg/L (≈ 8.92 µM)
- selectivity ratio [20]: 11
- selectivity ratio [21]: 7
- CC50 at 72 h [22]: 4.6 mg/L (≈ 8.2 µM)
- CC50 at 72 h [23]: 6.8 mg/L (≈ 12.1 µM)
- selectivity ratio [24]: 27
- CC50 at 72 h [25]: 6 mg/L (≈ 10.7 µM)
- CC50 at 72 h [26]: 2.1 mg/L (≈ 3.75 µM)
- selectivity ratio [27]: 39
- selectivity ratio (in vitro [28]): 10
- CC50 at 72 h [29]: 9.9 mg/L (≈ 17.7 µM)
- selectivity ratio [30]: 8
- selectivity ratio [31]: 15
- selectivity ratio [32]: 20
- selectivity ratio (in vitro [33]): 20
- CC50 at 72 h [34]: 0.7 mg/L (≈ 1.25 µM)
- selectivity ratio [35]: 18

Structure (SMILES): COc1ccc2cc1Oc1ccc(cc1)C[C@H]1c3c(cc4c(c3Oc3cc5c(cc3OC)CCN(C)[C@@H]5C2)OCO4)CCN1C [CEPHARANTHINE]
- CC50 at 72 h [1]: 5.6 mg/L (≈ 9.23 µM)
- EC50 (Plasmodium falciparum [2]): 0.295 mg/L (≈ 0.486 µM)
- selectivity ratio [3]: 19
- selectivity ratio [4]: 52
- selectivity ratio [5]: 25
- CC50 at 48 h [6]: 0.3 mg/L (≈ 0.494 µM)
- selectivity ratio [7]: 7
- selectivity ratio (in vitro [8]): 1
- selectivity ratio (in vitro [9]): 7
- selectivity ratio [10]: 6
- selectivity ratio [11]: 3
- selectivity ratio [12]: 103
- selectivity ratio [13]: 64
- selectivity ratio [14]: 42
- CC50 at 72 h [15]: 5.9 mg/L (≈ 9.72 µM)
- EC50 (Plasmodium falciparum [16]): 0.14 mg/L (≈ 0.231 µM)
- CC50 at 72 h [17]: 8.8 mg/L (≈ 14.5 µM)
- selectivity ratio [18]: 44
- CC50 at 72 h [19]: 9 mg/L (≈ 14.8 µM)
- selectivity ratio [20]: 20
- selectivity ratio [21]: 40
- CC50 at 72 h [22]: 4.7 mg/L (≈ 7.75 µM)
- CC50 at 72 h [23]: 0.9 mg/L (≈ 1.48 µM)
- selectivity ratio [24]: 3
- CC50 at 72 h [25]: 2.1 mg/L (≈ 3.46 µM)
- CC50 at 72 h [26]: 6.1 mg/L (≈ 10.1 µM)
- selectivity ratio [27]: 49
- selectivity ratio (in vitro [28]): 2
- CC50 at 72 h [29]: 14.5 mg/L (≈ 23.9 µM)
- selectivity ratio [30]: 21
- selectivity ratio [31]: 34
- selectivity ratio [32]: 31
- selectivity ratio (in vitro [33]): 15
- CC50 at 72 h [34]: 1 mg/L (≈ 1.65 µM)
- selectivity ratio [35]: 16

Structure (SMILES): COc1ccc2cc1Oc1ccc(cc1)C[C@H]1c3c(cc(OC)c(OC)c3Oc3cc4c(cc3OC)CCN[C@@H]4C2)CCN1C
- CC50 at 72 h [1]: 3.7 mg/L (≈ 6.08 µM)
- EC50 (Plasmodium falciparum [2]): 0.0937 mg/L (≈ 0.154 µM)
- selectivity ratio [3]: 40
- selectivity ratio [4]: 192
- selectivity ratio [5]: 94
- CC50 at 48 h [6]: 3.5 mg/L (≈ 5.75 µM)
- selectivity ratio [7]: 41
- selectivity ratio (in vitro [8]): 37
- selectivity ratio (in vitro [9]): 65
- selectivity ratio [10]: 44
- selectivity ratio [11]: 20
- selectivity ratio [12]: 316
- selectivity ratio [13]: 120
- selectivity ratio [14]: 131
- CC50 at 72 h [15]: 6 mg/L (≈ 9.86 µM)
- EC50 (Plasmodium falciparum [16]): 0.0459 mg/L (≈ 0.0754 µM)
- CC50 at 72 h [17]: 8.8 mg/L (≈ 14.5 µM)
- selectivity ratio [18]: 161
- CC50 at 72 h [19]: 5.5 mg/L (≈ 9.04 µM)
- selectivity ratio [20]: 64
- selectivity ratio [21]: 81
- CC50 at 72 h [22]: 3.2 mg/L (≈ 5.26 µM)
- CC50 at 72 h [23]: 2 mg/L (≈ 3.29 µM)
- selectivity ratio [24]: 21
- CC50 at 72 h [25]: 6.1 mg/L (≈ 10 µM)
- CC50 at 72 h [26]: 7.4 mg/L (≈ 12.2 µM)
- selectivity ratio [27]: 155
- selectivity ratio (in vitro [28]): 76
- CC50 at 72 h [29]: 14.5 mg/L (≈ 23.8 µM)
- selectivity ratio [30]: 79
- selectivity ratio [31]: 70
- selectivity ratio [32]: 59
- selectivity ratio (in vitro [33]): 133
- CC50 at 72 h [34]: 1.9 mg/L (≈ 3.12 µM)
- selectivity ratio [35]: 34

Structure (SMILES): C=C[C@H]1CN2CC[C@H]1C[C@H]2[C@H](O)c1ccnc2ccc(OC)cc12 [QUININE]
- CC50 at 72 h [1]: > 20 mg/L
- EC50 (Plasmodium falciparum [2]): 0.0308 mg/L (≈ 0.0949 µM)
- selectivity ratio [3]: 649
- selectivity ratio [4]: > 2630
- selectivity ratio [5]: 649
- CC50 at 48 h [6]: > 5 mg/L
- selectivity ratio [7]: > 2630
- selectivity ratio (in vitro [8]): > 658
- selectivity ratio (in vitro [9]): 649
- selectivity ratio [10]: 737
- selectivity ratio [11]: 649
- selectivity ratio [12]: > 2630
- selectivity ratio [13]: > 2630
- selectivity ratio [14]: > 2630
- CC50 at 72 h [15]: > 20 mg/L
- EC50 (Plasmodium falciparum [16]): 0.0076 mg/L (≈ 0.0234 µM)
- CC50 at 72 h [17]: > 20 mg/L
- selectivity ratio [18]: > 2630
- CC50 at 72 h [19]: > 20 mg/L
- selectivity ratio [20]: 649
- selectivity ratio [21]: > 2630
- CC50 at 72 h [22]: > 20 mg/L
- CC50 at 72 h [23]: 5.6 mg/L (≈ 17.3 µM)
- selectivity ratio [24]: 182
- CC50 at 72 h [25]: > 20 mg/L
- CC50 at 72 h [26]: > 20 mg/L
- selectivity ratio [27]: 649
- selectivity ratio (in vitro [28]): > 658
- CC50 at 72 h [29]: > 20 mg/L
- selectivity ratio [30]: 649
- selectivity ratio [31]: > 2630
- selectivity ratio [32]: 649
- selectivity ratio (in vitro [33]): > 2630
- CC50 at 72 h [34]: > 20 mg/L
- selectivity ratio [35]: 649

From ChEMBL document CHEMBL1147331, “Cytotoxic and antimalarial bisbenzylisoquinoline alkaloids from Stephania erecta” (J Nat Prod, 1993)
